Molecular target: T1, KDM5A (Homo sapiens, UniProt P29375)
T1 construct: Full length recombinant Flag tagged KDM5A protein was purified from Sf9 insect cells; Flag; made in house; host or cells: Sf9 insect cells
Experiment: KDM5A Demethylase Assay (TR-FRET Assay-B)
Type: biochemical
Details: full length recombinant Flag tagged KDM5A, 2 nM, TrisCl pH 7.4, 3.0 μM α-ketoglutarate, read-out: B KDM5A HTRF (IC50)
Description: Full length recombinant Flag tagged KDM5A protein was purified from Sf9 insect cells. The demethylation reaction buffer contained 50 mM TrisCl pH 7.4, 0.01% Triton X-100, 0.025 mg/mL BSA, 1 mM ascorbate, 2 mM TCEP, 3.0 μM α-ketoglutarate, and 50 μM Fe2(NH4)2(SO4)2. […] After a one hour incubation assays were read on a Perkin-Elmer Envision equipped with a laser source and appropriate filters.

T1 sequence (P29375 whole entry): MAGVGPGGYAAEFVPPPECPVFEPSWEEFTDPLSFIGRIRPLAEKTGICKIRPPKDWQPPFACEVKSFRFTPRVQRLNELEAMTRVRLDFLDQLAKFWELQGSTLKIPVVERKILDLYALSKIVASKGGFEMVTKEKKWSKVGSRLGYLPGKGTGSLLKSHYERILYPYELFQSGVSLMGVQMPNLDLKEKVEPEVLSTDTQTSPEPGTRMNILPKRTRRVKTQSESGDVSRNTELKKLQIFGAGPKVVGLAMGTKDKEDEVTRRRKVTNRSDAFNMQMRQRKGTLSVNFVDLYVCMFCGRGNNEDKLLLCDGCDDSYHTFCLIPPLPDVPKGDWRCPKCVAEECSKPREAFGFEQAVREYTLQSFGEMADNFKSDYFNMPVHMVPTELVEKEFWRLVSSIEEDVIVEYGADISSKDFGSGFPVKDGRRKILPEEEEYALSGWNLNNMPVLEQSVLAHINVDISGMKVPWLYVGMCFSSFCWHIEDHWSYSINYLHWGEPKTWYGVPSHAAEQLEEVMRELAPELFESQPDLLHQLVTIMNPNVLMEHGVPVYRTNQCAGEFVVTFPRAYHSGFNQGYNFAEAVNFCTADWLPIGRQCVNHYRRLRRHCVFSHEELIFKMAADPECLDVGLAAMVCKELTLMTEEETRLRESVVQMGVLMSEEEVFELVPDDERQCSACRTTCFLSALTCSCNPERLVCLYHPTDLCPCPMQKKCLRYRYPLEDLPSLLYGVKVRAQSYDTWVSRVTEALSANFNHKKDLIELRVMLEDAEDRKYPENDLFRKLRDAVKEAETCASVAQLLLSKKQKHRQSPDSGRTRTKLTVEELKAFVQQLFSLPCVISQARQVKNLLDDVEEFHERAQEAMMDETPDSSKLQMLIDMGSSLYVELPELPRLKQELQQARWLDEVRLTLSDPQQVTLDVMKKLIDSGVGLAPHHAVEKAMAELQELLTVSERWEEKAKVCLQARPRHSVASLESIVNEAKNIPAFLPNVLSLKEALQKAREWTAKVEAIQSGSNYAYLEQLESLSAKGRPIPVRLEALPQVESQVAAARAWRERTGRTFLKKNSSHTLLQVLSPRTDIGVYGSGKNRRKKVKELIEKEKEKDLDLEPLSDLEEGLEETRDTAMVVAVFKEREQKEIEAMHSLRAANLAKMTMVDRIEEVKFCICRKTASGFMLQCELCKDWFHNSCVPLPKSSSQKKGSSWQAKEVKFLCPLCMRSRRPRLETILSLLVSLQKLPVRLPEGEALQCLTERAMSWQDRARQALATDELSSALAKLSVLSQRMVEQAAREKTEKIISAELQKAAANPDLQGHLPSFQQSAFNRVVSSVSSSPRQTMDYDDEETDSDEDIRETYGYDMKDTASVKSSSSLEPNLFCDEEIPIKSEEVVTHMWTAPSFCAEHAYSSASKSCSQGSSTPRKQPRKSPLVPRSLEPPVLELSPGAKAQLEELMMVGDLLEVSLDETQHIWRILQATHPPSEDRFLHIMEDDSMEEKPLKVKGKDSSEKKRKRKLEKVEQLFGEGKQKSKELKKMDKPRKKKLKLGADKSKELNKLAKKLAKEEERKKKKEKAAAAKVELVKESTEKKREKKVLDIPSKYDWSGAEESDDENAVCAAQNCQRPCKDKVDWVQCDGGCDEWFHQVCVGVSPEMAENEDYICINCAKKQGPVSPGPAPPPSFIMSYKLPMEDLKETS

Row | IC50 | SMILES
1 | 16.1 nM | CCc1c(C)[nH]c2c(-c3cnn(-c4ncc(C)cn4)c3)cnn2c1=O [Example 2, 6-ethyl-5-methyl-3-(1-(5-methylpyrimidin-2-yl)-1H-pyrazol-4-yl)pyrazolo[1,5-a]pyrimidin-7(4H)-one]
2 | 158 nM | CCc1c(C)[nH]c2c(-c3cnn(-c4ccncn4)c3)cnn2c1=O [Example 3, 6-ethyl-5-methyl-3-(1-(pyrimidin-4-yl)-1H-pyrazol-4-yl)pyrazolo[1,5-a]pyrimidin-7(4H)-one]
3 | 47 nM | CCc1c(C)[nH]c2c(-c3cnn(-c4nccc(N(C)C)n4)c3)cnn2c1=O [Example 4, 3-(1-(4-(dimethylamino)pyrimidin-2-yl)-1H-pyrazol-4-yl)-6-ethyl-5-methylpyrazolo[1,5-a]pyrimidin-7(4H)-one]
4 | 60.3 nM | CCc1c(C)[nH]c2c(-c3cnn(-c4ncc(N(C)C)cn4)c3)cnn2c1=O [Example 5, 3-(1-(5-(dimethylamino)pyrimidin-2-yl)-1H-pyrazol-4-yl)-6-ethyl-5-methylpyrazolo[1,5-a]pyrimidin-7(4H)-one]
5 | 52.9 nM | CCc1c(C)[nH]c2c(-c3cnn(-c4nccc(N5CCCC5)n4)c3)cnn2c1=O [Example 6, 6-ethyl-5-methyl-3-(1-(4-(pyrrolidin-1-yl)pyrimidin-2-yl)-1H-pyrazol-4-yl)pyrazolo[1,5-a]pyrimidin-7(4H)-one]
6 | 8.6 nM | CCc1c(C)[nH]c2c(-c3cnn(-c4nccc(OC)n4)c3)cnn2c1=O [Example 7, 6-ethyl-3-(1-(4-methoxypyrimidin-2-yl)-1H-pyrazol-4-yl)-5-methylpyrazolo[1,5-a]pyrimidin-7(4H)-one]
7 | 136 nM | CCc1c(C)[nH]c2c(-c3cnn(-c4nccs4)c3)cnn2c1=O [Example 8, 6-ethyl-5-methyl-3-(1-(thiazol-2-yl)-1H-pyrazol-4-yl)pyrazolo[1,5-a]pyrimidin-7(4H)-one]
8 | 16.6 nM | CCc1c(C)[nH]c2c(-c3cnn(-c4cc(C5CC5)ccn4)c3)cnn2c1=O [Example 9, 3-(1-(4-cyclopropylpyridin-2-yl)-1H-pyrazol-4-yl)-6-ethyl-5-methylpyrazolo[1,5-a]pyrimidin-7(4H)-one]
9 | 201 nM | CCc1c(C)[nH]c2c(-c3cnn(-c4cc(C(=O)O)ccn4)c3)cnn2c1=O [Example 10, 2-(4-(6-ethyl-5-methyl-7-oxo-4,7-dihydropyrazolo[1,5-a]pyrimidin-3-yl)-1H-pyrazol-1-yl)isonicotinic acid]
10 | 31.3 nM | CCc1c(C)[nH]c2c(-c3cnn(-c4ccc(CO)cn4)c3)cnn2c1=O [Example 12, 6-ethyl-3-(1-(5-(hydroxymethyl)pyridin-2-yl)-1H-pyrazol-4-yl)-5-methylpyrazolo[1,5-a]pyrimidin-7(4H)-one]
11 | 66.1 nM | CCc1c(C)[nH]c2c(-c3cnn(-c4cc(Cl)ccn4)c3)cnn2c1=O [Example 13, 3-(1-(4-chloropyridin-2-yl)-1H-pyrazol-4-yl)-6-ethyl-5-methylpyrazolo[1,5-a]pyrimidin-7(4H)-one]
12 | 16.5 nM | CCc1c(C)[nH]c2c(-c3cnn(-c4ncccn4)c3)cnn2c1=O [Example 14, 6-ethyl-5-methyl-3-(1-(pyrimidin-2-yl)-1H-pyrazol-4-yl)pyrazolo[1,5-a]pyrimidin-7(4H)-one]
13 | 66.1 nM | CCc1c(C)[nH]c2c(-c3cnn(-c4cc(OC)ccn4)c3)cnn2c1=O [Example 15, 6-ethyl-3-(1-(4-methoxypyridin-2-yl)-1H-pyrazol-4-yl)-5-methylpyrazolo[1,5-a]pyrimidin-7(4H)-one]
14 | 406 nM | CCc1c(C)[nH]c2c(-c3cnn(-c4cc(N(C)C)ccn4)c3)cnn2c1=O [Example 16, 3-(1-(4-(dimethylamino)pyridin-2-yl)-1H-pyrazol-4-yl)-6-ethyl-5-methylpyrazolo[1,5-a]pyrimidin-7(4H)-one]
15 | 14.1 nM | CCc1c(C)[nH]c2c(-c3cnn(-c4cc(OCCO)ccn4)c3)cnn2c1=O [Example 17, 6-ethyl-3-(1-(4-(2-hydroxyethoxy)pyridin-2-yl)-1H-pyrazol-4-yl)-5-methylpyrazolo[1,5-a]pyrimidin-7(4H)-one]
16 | 9.8 nM | CCc1c(C)[nH]c2c(-c3cnn(-c4cc(OCCN)ccn4)c3)cnn2c1=O [Example 18, 3-(1-(4-(2-aminoethoxy)pyridin-2-yl)-1H-pyrazol-4-yl)-6-ethyl-5-methylpyrazolo[1,5-a]pyrimidin-7(4H)-one]
17 | 5.7 nM | Cc1[nH]c2c(-c3cnn(-c4ncccn4)c3)cnn2c(=O)c1C(C)C [Example 19, 6-isopropyl-5-methyl-3-(1-(pyrimidin-2-yl)-1H-pyrazol-4-yl)pyrazolo[1,5-a]pyrimidin-7(4H)-one]
18 | 8.3 nM | Cc1[nH]c2c(-c3cnn(-c4ccccn4)c3)cnn2c(=O)c1C(C)C [Example 20, 6-isopropyl-5-methyl-3-(1-(pyridin-2-yl)-1H-pyrazol-4-yl)pyrazolo[1,5-a]pyrimidin-7(4H)-one]
19 | 9.1 nM | Cc1ccc(-n2cc(-c3cnn4c(=O)c(C(C)C)c(C)[nH]c34)cn2)nc1 [Example 21, 6-isopropyl-5-methyl-3-(1-(5-methylpyridin-2-yl)-1H-pyrazol-4-yl)pyrazolo[1,5-a]pyrimidin-7(4H)-one]
20 | 23.6 nM | Cc1ccnc(-n2cc(-c3cnn4c(=O)c(C(C)C)c(C)[nH]c34)cn2)c1 [Example 22, 6-isopropyl-5-methyl-3-(1-(4-methylpyridin-2-yl)-1H-pyrazol-4-yl)pyrazolo[1,5-a]pyrimidin-7(4H)-one]
21 | 54.3 nM | Cc1ccnc(-n2cc(-c3cnn4c(=O)c(C(C)C)c(C)[nH]c34)cn2)n1 [Example 23, 6-isopropyl-5-methyl-3-(1-(4-methylpyrimidin-2-yl)-1H-pyrazol-4-yl)pyrazolo[1,5-a]pyrimidin-7(4H)-one]
22 | 16.6 nM | Cc1cnc(-n2cc(-c3cnn4c(=O)c(C(C)C)c(C)[nH]c34)cn2)nc1 [Example 24, 6-isopropyl-5-methyl-3-(1-(5-methylpyrimidin-2-yl)-1H-pyrazol-4-yl)pyrazolo[1,5-a]pyrimidin-7(4H)-one]
23 | 6.6 nM | Cc1[nH]c2c(-c3cnn(-c4ccc(CO)cn4)c3)cnn2c(=O)c1C(C)C [Example 25, 3-(1-(5-(hydroxymethyl)pyridin-2-yl)-1H-pyrazol-4-yl)-6-isopropyl-5-methylpyrazolo[1,5-a]pyrimidin-7(4H)-one]
24 | 13.4 nM | Cc1ccnc(-n2cc(-c3cnn4c(=O)c(C5CC5)c(C)[nH]c34)cn2)c1 [Example 28, 6-cyclopropyl-5-methyl-3-(1-(4-methylpyridin-2-yl)-1H-pyrazol-4-yl)pyrazolo[1,5-a]pyrimidin-7(6H)-one]
25 | 18.5 nM | Cc1[nH]c2c(-c3cnn(-c4ncccn4)c3)cnn2c(=O)c1C1CC1 [Example 29, 6-cyclopropyl-5-methyl-3-(1-(pyrimidin-2-yl)-1H-pyrazol-4-yl)pyrazolo[1,5-a]pyrimidin-7(6H)-one]
26 | 4.8 nM | Cc1ccnc(-n2cc(-c3cnn4c(=O)c(C5CC5)c(C)[nH]c34)cn2)n1 [Example 30, 6-cyclopropyl-5-methyl-3-(1-(4-methylpyrimidin-2-yl)-1H-pyrazol-4-yl)pyrazolo[1,5-a]pyrimidin-7(6H)-one]

Row | SMILES | IC50
27 | CCc1c(C)[nH]c2c(-c3cnn(-c4cc(CO)ccn4)c3)cnn2c1=O [Example 11, 6-ethyl-3-(1-(4-(hydroxymethyl)pyridin-2-yl)-1H-pyrazol-4-yl)-5-methylpyrazolo[1,5-a]pyrimidin-7(4H)-one] | 2.3 nM

Source: patent US9505767B2, “Pyrazolo[1,5-A]pyrimidin-7(4H)-onehistone demethylase inhibitors” (Genentech, Inc., priority 2013, dated 2016)
